Laboratory results as given in ChEMBL document CHEMBL1201862, “PubChem BioAssay data set” (2004).
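Test compounds were applied to cells in 96-well plates for 48 hours at 5 doses. GI50: concentration for 50% inhibition of growth.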 Active and inactive are the calls of the source. Cut-off read from the data, not from the text of the source: active = GI50 up to about 1.1 µM and inactive = higher.

Assays:
Assay in all cases: NCI anticancer screen, dose series, 48 h
786-0 = tested on: 786-0
NCI-H23 = tested on: NCI-H23
RXF 393 = tested on: RXF 393
HCT-15 = tested on: HCT-15
NCI-H226 = tested on: NCI-H226
UO-31 = tested on: UO-31
COLO 205 = tested on: COLO 205
SNB-19 = tested on: SNB-19
SK-MEL-28 = tested on: SK-MEL-28
HOP-62 = tested on: HOP-62
HT-29 = tested on: HT-29
OVCAR-4 = tested on: OVCAR-4
Malme-3M = tested on: Malme-3M
K562 = tested on: K562
M14 = tested on: M14
RPMI-8226 = tested on: RPMI-8226
SN12C = tested on: SN12C
SR = tested on: SR

SMILES	GI50 (786-0)	GI50 (NCI-H23)	GI50 (RXF 393)	GI50 (HCT-15)	GI50 (NCI-H226)	GI50 (UO-31)	GI50 (COLO 205)	GI50 (SNB-19)	GI50 (SK-MEL-28)	GI50 (HOP-62)	GI50 (HT-29)	GI50 (OVCAR-4)	GI50 (Malme-3M)	GI50 (K562)	GI50 (M14)	GI50 (RPMI-8226)	GI50 (SN12C)	GI50 (SR)
COc1ccc(OC)c(NCC#N)c1	> 100 µM (inactive)	> 100 µM (inactive)	> 100 µM (inactive)	> 100 µM	> 100 µM (inactive)	> 100 µM (inactive)	> 100 µM (inactive)	> 100 µM (inactive)	> 100 µM (inactive)	> 100 µM (inactive)	> 100 µM (inactive)	> 100 µM (inactive)	> 100 µM (inactive)	> 100 µM (inactive)	> 100 µM (inactive)	> 100 µM (inactive)	> 100 µM (inactive)	–
COc1cc2c(c(OC)c1OC)-c1ccc(OC)c(=O)cc1[C@@H](N(C)C=O)CC2	0.0277 µM (active)	0.0168 µM (active)	0.0161 µM (active)	0.0752 µM	0.162 µM (active)	0.752 µM (active)	0.0129 µM (active)	0.0215 µM (active)	< 0.01 µM (active)	< 0.0164 µM (active)	0.0156 µM (active)	1.37 µM (inactive)	0.0184 µM (active)	0.0128 µM (active)	< 0.0122 µM (active)	0.0249 µM (active)	0.0329 µM (active)	–
C=C1CCc2occ(C)c2C2C1C1=C(CC(C)C1=O)C1OC12C (stereo not drawn)	> 100 µM (inactive)	> 100 µM (inactive)	> 100 µM (inactive)	> 100 µM	> 100 µM (inactive)	4.03 µM (inactive)	> 100 µM (inactive)	26.5 µM (inactive)	> 100 µM (inactive)	> 100 µM (inactive)	> 100 µM (inactive)	> 100 µM (inactive)	> 100 µM (inactive)	> 100 µM (inactive)	> 100 µM (inactive)	–	> 100 µM (inactive)	–
CN(C)c1nc(N(C)c2ccccc2)[s+]s1	51.5 µM (inactive)	65.6 µM (inactive)	> 100 µM (inactive)	54.3 µM	99.8 µM (inactive)	99.1 µM (inactive)	–	> 100 µM (inactive)	64.3 µM (inactive)	> 100 µM (inactive)	89.5 µM (inactive)	> 100 µM (inactive)	60.4 µM (inactive)	35.1 µM (inactive)	32.4 µM (inactive)	–	44.8 µM (inactive)	–
C(=N\OCc1ccccc1)/c1ncccc1C1OCCO1	> 100 µM (inactive)	> 100 µM (inactive)	> 100 µM (inactive)	> 100 µM	–	> 100 µM (inactive)	> 100 µM (inactive)	> 100 µM (inactive)	> 100 µM (inactive)	> 100 µM (inactive)	> 100 µM (inactive)	> 100 µM (inactive)	> 100 µM (inactive)	> 100 µM (inactive)	> 100 µM (inactive)	–	> 100 µM (inactive)	> 100 µM (inactive)
Clc1ccc(SCCSCCCCCCCCCCSCCSc2ccc(Cl)cc2)cc1	> 100 µM (inactive)	> 100 µM (inactive)	> 100 µM (inactive)	> 100 µM	> 100 µM (inactive)	> 100 µM (inactive)	> 100 µM (inactive)	> 100 µM (inactive)	> 100 µM (inactive)	> 100 µM (inactive)	> 100 µM (inactive)	–	> 100 µM (inactive)	> 100 µM (inactive)	–	> 100 µM (inactive)	> 100 µM (inactive)	–
CCOC(=O)C1(Br)C(c2ccccc2)NC(=O)NC1(C)Br (stereo not drawn)	38.3 µM (inactive)	67.3 µM (inactive)	25.1 µM (inactive)	> 100 µM	> 100 µM (inactive)	> 100 µM (inactive)	65.3 µM (inactive)	19 µM (inactive)	> 100 µM (inactive)	> 100 µM (inactive)	> 100 µM (inactive)	–	> 100 µM (inactive)	39.8 µM (inactive)	82.8 µM (inactive)	62.2 µM (inactive)	59.6 µM (inactive)	57.1 µM (inactive)
CC(=O)OCCOCNC(=S)N/N=C/c1cc([N+](=O)[O-])ccc1O	> 100 µM (inactive)	> 100 µM (inactive)	> 100 µM (inactive)	> 100 µM	> 100 µM (inactive)	> 100 µM (inactive)	75 µM (inactive)	> 100 µM (inactive)	> 100 µM (inactive)	> 100 µM (inactive)	> 100 µM (inactive)	84.5 µM (inactive)	> 100 µM (inactive)	> 100 µM (inactive)	86.7 µM (inactive)	–	> 100 µM (inactive)	–
c1ccc2c(c1)N=C(c1ccc3ccccc3c1)CC(c1cccc3ccccc13)S2 (stereo not drawn)	44.1 µM (inactive)	25.7 µM (inactive)	40.4 µM (inactive)	21.3 µM	45.4 µM (inactive)	59.7 µM (inactive)	68.7 µM (inactive)	46.8 µM (inactive)	83.4 µM (inactive)	85.5 µM (inactive)	30.2 µM (inactive)	33.6 µM (inactive)	> 100 µM (inactive)	17.2 µM (inactive)	54.8 µM (inactive)	11.2 µM (inactive)	59.3 µM (inactive)	–
Cl[Si]1(Cl)Oc2ccccc2O[Si](Cl)(Cl)Oc2ccccc2O1	8.45 µM (inactive)	14.8 µM (inactive)	–	21 µM	38.5 µM (inactive)	–	13.8 µM (inactive)	17.4 µM (inactive)	33.3 µM (inactive)	26.2 µM (inactive)	17 µM (inactive)	11.8 µM (inactive)	18.7 µM (inactive)	15.3 µM (inactive)	15.5 µM (inactive)	9.18 µM (inactive)	6.7 µM (inactive)	–
CC1CC2OC(=O)C3CC(O)CC(=C23)[C@@]12C[C@@H](c1ccoc1)OC2=O (stereo partly drawn)	> 100 µM (inactive)	> 100 µM (inactive)	> 100 µM (inactive)	> 100 µM	> 100 µM (inactive)	> 100 µM (inactive)	> 100 µM (inactive)	> 100 µM (inactive)	> 100 µM (inactive)	–	> 100 µM (inactive)	> 100 µM (inactive)	> 100 µM (inactive)	> 100 µM (inactive)	> 100 µM (inactive)	> 100 µM (inactive)	> 100 µM (inactive)	> 100 µM (inactive)
COc1ccc(NC(=O)C2C(=O)N(c3ccc(OC)cc3)C(=O)/C2=N\N)cc1 (stereo not drawn)	> 100 µM (inactive)	> 100 µM (inactive)	> 100 µM (inactive)	> 100 µM	–	> 100 µM (inactive)	> 100 µM (inactive)	94.8 µM (inactive)	> 100 µM (inactive)	> 100 µM (inactive)	> 100 µM (inactive)	–	> 100 µM (inactive)	65 µM (inactive)	> 100 µM (inactive)	–	> 100 µM (inactive)	> 100 µM (inactive)
OCC1OC(c2nc(C3=NCCCN3)cs2)C(O)C1O (stereo not drawn)	> 100 µM (inactive)	> 100 µM (inactive)	–	> 100 µM	> 100 µM (inactive)	> 100 µM (inactive)	> 100 µM (inactive)	> 100 µM (inactive)	> 100 µM (inactive)	> 100 µM (inactive)	> 100 µM (inactive)	> 100 µM (inactive)	> 100 µM (inactive)	> 100 µM (inactive)	> 100 µM (inactive)	> 100 µM (inactive)	> 100 µM (inactive)	–
CC(C)N(C(=O)C12C3C4C5(C#N)C3C1(C#N)C5C42C#N)C(C)C (stereo not drawn)	> 100 µM (inactive)	> 100 µM (inactive)	–	–	> 100 µM (inactive)	> 100 µM (inactive)	> 100 µM (inactive)	> 100 µM (inactive)	> 100 µM (inactive)	> 100 µM (inactive)	> 100 µM (inactive)	> 100 µM (inactive)	> 100 µM (inactive)	> 100 µM (inactive)	–	> 100 µM (inactive)	> 100 µM (inactive)	–
C=CCCC12CCCC(=O)C1Sc1ccc3ccccc3c12 (stereo not drawn)	17.9 µM (inactive)	19.7 µM (inactive)	12.2 µM (inactive)	11.1 µM	14.1 µM (inactive)	16.8 µM (inactive)	12.9 µM (inactive)	24.4 µM (inactive)	20.7 µM (inactive)	19.8 µM (inactive)	20.1 µM (inactive)	28.6 µM (inactive)	16.4 µM (inactive)	16.8 µM (inactive)	13.2 µM (inactive)	12.9 µM (inactive)	14.6 µM (inactive)	–
Cc1c(Cl)cccc1NC(=O)CC1C(=O)Nc2ccccc2S1(=O)=O (stereo not drawn)	17.3 µM (inactive)	18.1 µM (inactive)	14.7 µM (inactive)	10.3 µM	16.9 µM (inactive)	17.1 µM (inactive)	–	33 µM (inactive)	18.6 µM (inactive)	–	17.6 µM (inactive)	20.5 µM (inactive)	17.6 µM (inactive)	5.5 µM (inactive)	14.2 µM (inactive)	11.6 µM (inactive)	16.7 µM (inactive)	10.5 µM (inactive)
C[P+]1(c2ccccc2)CCCCC1	> 100 µM (inactive)	> 100 µM (inactive)	> 100 µM (inactive)	> 100 µM	–	> 100 µM (inactive)	> 100 µM (inactive)	> 100 µM (inactive)	> 100 µM (inactive)	> 100 µM (inactive)	> 100 µM (inactive)	> 100 µM (inactive)	> 100 µM (inactive)	> 100 µM (inactive)	> 100 µM (inactive)	> 100 µM (inactive)	> 100 µM (inactive)	–
C=CCC1[C@@H](C(C)(C)C(C(C)=O)C(=O)C(=O)OC)OC(C(C)(C)C)N1C(=O)OC (stereo partly drawn)	> 100 µM (inactive)	> 100 µM (inactive)	> 100 µM (inactive)	> 100 µM	52.6 µM (inactive)	> 100 µM (inactive)	> 100 µM (inactive)	> 100 µM (inactive)	> 100 µM (inactive)	> 100 µM (inactive)	> 100 µM (inactive)	> 100 µM (inactive)	> 100 µM (inactive)	40.6 µM (inactive)	> 100 µM (inactive)	–	> 100 µM (inactive)	–
